Test results published in ChEMBL document CHEMBL1649439, “Prevalence of aac(6')-Ib-cr encoding a ciprofloxacin-modifying enzyme among Enterobacteriaceae blood isolates in Korea” (2009).
Converted amounts (≈) assume the structure as drawn.

Experiments:
Format in all cases: functional
Klebsiella pneumoniae [1] = test: Antimicrobial activity against Klebsiella pneumoniae isolate 132 expressing aac(6')-Ib-cr gene
Klebsiella pneumoniae [2] = test: Antimicrobial activity against Klebsiella pneumoniae isolate 202 expressing aac(6')-Ib-cr gene
Klebsiella pneumoniae [3] = test: Antimicrobial activity against Klebsiella pneumoniae isolate 132 transconjugant expressing aac(6')-Ib-cr gene
Klebsiella pneumoniae [4] = test: Antimicrobial activity against Klebsiella pneumoniae isolate 135 expressing aac(6')-Ib-cr gene
Klebsiella pneumoniae [5] = test: Antimicrobial activity against Klebsiella pneumoniae isolate 202 transconjugant expressing aac(6')-Ib-cr gene
Klebsiella pneumoniae [6] = test: Antimicrobial activity against Klebsiella pneumoniae isolate 135 transconjugant expressing aac(6')-Ib-cr gene
Escherichia coli [7] = test: Antimicrobial activity against Escherichia coli isolate 17 expressing aac(6')-Ib-cr gene
Escherichia coli [8] = test: Antimicrobial activity against azide-resistant Escherichia coli J53
Enterobacter cloacae [9] = test: Antimicrobial activity against Enterobacter cloacae isolate 101 expressing aac(6')-Ib-cr gene
Enterobacter cloacae [10] = test: Antimicrobial activity against Enterobacter cloacae isolate 37 expressing aac(6')-Ib-cr gene
Escherichia coli [11] = test: Antimicrobial activity against Escherichia coli isolate 17 transconjugant expressing aac(6')-Ib-cr gene
Escherichia coli [12] = test: Antimicrobial activity against Escherichia coli isolate 48 transconjugant expressing aac(6')-Ib-cr gene
Enterobacter cloacae [13] = test: Antimicrobial activity against Enterobacter cloacae isolate 37 transconjugant expressing aac(6')-Ib-cr gene
Enterobacter cloacae [14] = test: Antimicrobial activity against Enterobacter cloacae isolate 153 transconjugant expressing aac(6')-Ib-cr gene
Enterobacter cloacae [15] = test: Antimicrobial activity against Enterobacter cloacae isolate 101 transconjugant expressing aac(6')-Ib-cr gene
Escherichia coli [16] = test: Antimicrobial activity against Escherichia coli isolate 48 expressing aac(6')-Ib-cr gene
Enterobacter cloacae [17] = test: Antimicrobial activity against Enterobacter cloacae isolate 153 expressing aac(6')-Ib-cr gene
Escherichia coli [18] = test: Ratio of MIC for Escherichia coli isolate 48 transconjugant to MIC for azide-resistant Escherichia coli […]
Escherichia coli [19] = test: Ratio of MIC for Escherichia coli isolate 17 transconjugant to MIC for azide-resistant Escherichia coli […]

Compound	MIC (Klebsiella pneumoniae [1])	MIC (Klebsiella pneumoniae [2])	MIC (Klebsiella pneumoniae [3])	MIC (Klebsiella pneumoniae [4])	MIC (Klebsiella pneumoniae [5])	MIC (Klebsiella pneumoniae [6])	MIC (Escherichia coli [7])	MIC (Escherichia coli [8])	MIC (Enterobacter cloacae [9])	MIC (Enterobacter cloacae [10])	MIC (Escherichia coli [11])	MIC (Escherichia coli [12])	MIC (Enterobacter cloacae [13])	MIC (Enterobacter cloacae [14])	MIC (Enterobacter cloacae [15])	MIC (Escherichia coli [16])	MIC (Enterobacter cloacae [17])	fold change (FC) (Escherichia coli [18])	fold change (FC) (Escherichia coli [19])
COc1c(N2C[C@@H]3CCCN[C@@H]3C2)c(F)cc2c(=O)c(C(=O)O)cn(C3CC3)c12 [MOXIFLOXACIN]	0.125 µg/mL (≈ 0.311 µM)	16 µg/mL (≈ 39.9 µM)	0.06 µg/mL (≈ 0.149 µM)	> 16 µg/mL	0.06 µg/mL (≈ 0.149 µM)	1 µg/mL (≈ 2.49 µM)	> 16 µg/mL	–	–	–	–	–	–	–	–	–	–	–	–
CC(C)(O/N=C(\C(=O)N[C@@H]1C(=O)N2C(C(=O)[O-])=C(C[n+]3ccccc3)CS[C@H]12)c1csc(N)n1)C(=O)O [CEFTAZIDIME]	32 µg/mL (≈ 58.5 µM)	> 32 µg/mL	16 µg/mL (≈ 29.3 µM)	> 32 µg/mL	1 µg/mL (≈ 1.83 µM)	> 32 µg/mL	32 µg/mL (≈ 58.5 µM)	0.25 µg/mL (≈ 0.457 µM)	> 32 µg/mL	8 µg/mL (≈ 14.6 µM)	16 µg/mL (≈ 29.3 µM)	> 32 µg/mL	2 µg/mL (≈ 3.66 µM)	1 µg/mL (≈ 1.83 µM)	2 µg/mL (≈ 3.66 µM)	> 32 µg/mL	> 32 µg/mL	–	–
GENTAMICIN	> 32 µg/mL	> 32 µg/mL	32 µg/mL	> 32 µg/mL	> 32 µg/mL	> 32 µg/mL	> 32 µg/mL	0.25 µg/mL	> 32 µg/mL	> 32 µg/mL	32 µg/mL	0.25 µg/mL	> 32 µg/mL	> 32 µg/mL	0.25 µg/mL	0.25 µg/mL	> 32 µg/mL	–	–
O=C(O)c1cn(C2CC2)c2cc(N3CCNCC3)c(F)cc2c1=O [CIPROFLOXACIN]	0.125 µg/mL (≈ 0.377 µM)	> 16 µg/mL	0.03 µg/mL (≈ 0.0905 µM)	> 16 µg/mL	0.03 µg/mL (≈ 0.0905 µM)	1 µg/mL (≈ 3.02 µM)	> 16 µg/mL	–	–	–	–	–	–	–	–	> 16 µg/mL	–	–	–
NC[C@H]1O[C@H](O[C@H]2[C@H](O)[C@@H](O[C@H]3O[C@H](CO)[C@@H](O)[C@H](N)[C@H]3O)[C@H](N)C[C@@H]2N)[C@H](N)C[C@@H]1O [TOBRAMYCIN]	> 16 µg/mL	> 16 µg/mL	16 µg/mL (≈ 34.2 µM)	> 16 µg/mL	> 16 µg/mL	> 16 µg/mL	> 16 µg/mL	0.25 µg/mL (≈ 0.535 µM)	> 16 µg/mL	> 16 µg/mL	16 µg/mL (≈ 34.2 µM)	8 µg/mL (≈ 17.1 µM)	> 16 µg/mL	> 16 µg/mL	2 µg/mL (≈ 4.28 µM)	16 µg/mL (≈ 34.2 µM)	> 16 µg/mL	–	–
CCn1cc(C(=O)O)c(=O)c2ccc(C)nc21 [NALIDIXIC ACID]	8 µg/mL (≈ 34.4 µM)	> 256 µg/mL	8 µg/mL (≈ 34.4 µM)	> 256 µg/mL	8 µg/mL (≈ 34.4 µM)	32 µg/mL (≈ 138 µM)	> 256 µg/mL	8 µg/mL (≈ 34.4 µM)	> 256 µg/mL	> 256 µg/mL	8 µg/mL (≈ 34.4 µM)	8 µg/mL (≈ 34.4 µM)	8 µg/mL (≈ 34.4 µM)	8 µg/mL (≈ 34.4 µM)	8 µg/mL (≈ 34.4 µM)	> 256 µg/mL	> 256 µg/mL	–	–
CO/N=C(\C(=O)N[C@@H]1C(=O)N2C(C(=O)O)=C(COC(C)=O)CS[C@H]12)c1csc(N)n1 [CEFOTAXIME]	> 256 µg/mL	> 256 µg/mL	> 256 µg/mL	256 µg/mL (≈ 562 µM)	16 µg/mL (≈ 35.1 µM)	256 µg/mL (≈ 562 µM)	256 µg/mL (≈ 562 µM)	0.06 µg/mL (≈ 0.132 µM)	256 µg/mL (≈ 562 µM)	128 µg/mL (≈ 281 µM)	256 µg/mL (≈ 562 µM)	> 256 µg/mL	64 µg/mL (≈ 141 µM)	32 µg/mL (≈ 70.3 µM)	32 µg/mL (≈ 70.3 µM)	> 256 µg/mL	256 µg/mL (≈ 562 µM)	–	–
CCn1cc(C(=O)O)c(=O)c2cc(F)c(N3CCNCC3)cc21 [NORFLOXACIN]	0.5 µg/mL (≈ 1.57 µM)	> 16 µg/mL	0.125 µg/mL (≈ 0.391 µM)	> 16 µg/mL	0.125 µg/mL (≈ 0.391 µM)	8 µg/mL (≈ 25.1 µM)	> 16 µg/mL	0.06 µg/mL (≈ 0.188 µM)	> 16 µg/mL	> 16 µg/mL	0.25 µg/mL (≈ 0.783 µM)	0.25 µg/mL (≈ 0.783 µM)	0.25 µg/mL (≈ 0.783 µM)	0.25 µg/mL (≈ 0.783 µM)	0.25 µg/mL (≈ 0.783 µM)	> 16 µg/mL	> 16 µg/mL	2	2
